Experimental data reported in ChEMBL document CHEMBL1134014, “Synthesis and biological evaluation of a sialyl Lewis X mimic with significantly improved E-selectin inhibition” (Bioorg Med Chem Lett, 2001).

Columns and labels:
[1] = biological target: T1, E-selectin (Homo sapiens) (UniProt P16581); test: Relative inhibitory concentration against Selectin E to that of sLex in a static cell free ligand binding assay
T1 sequence (whole entry): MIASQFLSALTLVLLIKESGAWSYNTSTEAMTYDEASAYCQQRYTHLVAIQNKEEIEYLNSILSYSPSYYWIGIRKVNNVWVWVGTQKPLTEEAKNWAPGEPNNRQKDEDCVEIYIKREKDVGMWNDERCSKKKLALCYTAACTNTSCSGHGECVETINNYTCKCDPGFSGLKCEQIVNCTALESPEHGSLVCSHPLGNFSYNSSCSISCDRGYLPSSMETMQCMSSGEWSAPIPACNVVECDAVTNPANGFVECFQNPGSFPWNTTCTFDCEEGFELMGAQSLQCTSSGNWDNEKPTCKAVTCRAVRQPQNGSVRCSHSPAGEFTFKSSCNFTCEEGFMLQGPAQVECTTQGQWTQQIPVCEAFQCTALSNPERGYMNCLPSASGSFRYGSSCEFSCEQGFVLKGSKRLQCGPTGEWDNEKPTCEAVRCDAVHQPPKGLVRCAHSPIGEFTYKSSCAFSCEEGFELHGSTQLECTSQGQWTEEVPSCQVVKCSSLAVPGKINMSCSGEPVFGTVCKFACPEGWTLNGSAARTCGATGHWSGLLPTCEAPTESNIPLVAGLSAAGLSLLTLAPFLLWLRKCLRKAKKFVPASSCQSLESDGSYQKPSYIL

[2] = biological target: T1, E-selectin (Homo sapiens); settings: 200uM
Description: Percent inhibition of Selectin E by the compound at a dose of 200uM

[3] = biological target: T2, E-selectin (Homo sapiens, UniProt P16581); test: Inhibitory concentration against Selectin E in a static cell free ligand binding assay under equilibrium conditions.
T2 sequence (P16581 whole entry): T1 sequence (whole entry)

[4] = biological target: T1, E-selectin (Homo sapiens); settings: 10uM
Description: Percent inhibition of Selectin E by the compound at a dose of 10uM

[5] = biological target: T1, E-selectin (Homo sapiens); settings: 50uM
Description: Percent inhibition of Selectin E by the compound at a dose of 50uM

SMILES	Relative IC50 [1]	inhibition [2]	IC50 [3]	inhibition [4]	inhibition [5]
COC(=O)CCCCCCCCO[C@@H]1O[C@@H](CO)[C@@H](O[C@@H]2O[C@@H](CO)[C@H](O)[C@H](O[C@@H](CC3CCCCC3)C(=O)O)[C@@H]2O)[C@H](O[C@@H]2O[C@@H](C)[C@@H](O)[C@H](O)[C@@H]2O)[C@@H]1NC(=O)c1ccc(OC)c(OC)c1	0.03	97%	1.5 mM	54%	93%
COC(=O)CCCCCCCCOC1O[C@@H](O)[C@@H](O[C@@H]2O[C@@H](CO)[C@H](O)[C@H](O[C@]3(C(=O)O)C[C@@H](O)[C@@H](NC(C)=O)[C@H]([C@@H](O)[C@H](O)CO)O3)[C@@H]2O)[C@H](O[C@@H]2O[C@@H](C)[C@@H](O)[C@H](O)[C@@H]2O)[C@@H]1NC(=O)c1ccc(OC)c(OC)c1 (some centres undefined)	0.164				
COC(=O)CCCCCCCCO[C@@H]1O[C@@H](CO)[C@@H](O[C@@H]2O[C@@H](CO)[C@H](O)[C@H](O[C@]3(C(=O)O)C[C@@H](O)[C@@H](NC(C)=O)[C@H]([C@@H](O)[C@H](O)CO)O3)[C@@H]2O)[C@H](O[C@@H]2O[C@@H](C)[C@@H](O)[C@H](O)[C@@H]2O)[C@@H]1NC(C)=O	1				

Other lines, results leading:

Relative IC50 [1]	inhibition [2]	IC50 [3]	inhibition [4]	inhibition [5]	SMILES
0.031					C[C@@H]1O[C@@H](O[C@@H]2[C@H](CO)OCC[C@H]2O[C@@H]2O[C@@H](CO)[C@H](O)[C@H](OC(CC3CCCCC3)C(=O)O)[C@@H]2O)[C@@H](O)[C@@H](O)[C@@H]1O (single isomer, unassigned)
0.115					C[C@@H]1O[C@@H](O[C@@H]2CCCC[C@H]2O[C@@H]2O[C@@H](CO)[C@H](O)[C@H](OC(CC3CCCCC3)C(=O)O)[C@@H]2O)[C@@H](O)[C@@H](O)[C@@H]1O (single isomer, unassigned)
